Test results from publication PMC9012159, “A comparative biodistribution study of polymeric and lipid-based nanoparticles” (Drug Delivery and Translational Research, 2022).

Test: PEBCA pharmacokinetics and biodistribution study in rats (Cbz and metabolites by LC-MS/MS)
Type: in vivo, rat
Settings: for detection of possible Cbz metabolite in samples: all tissue and serum samples after PEBCA, LC-MS/MS; for peak concentration ratio organ:blood, fold higher for Cbz than for IR780-oleyl: highest doses
Protocol: Male Wistar rats were purchased at 8 weeks of age from Janvier Labs (France). They were housed in groups of four in individually ventilated cages in a specific pathogen-free environment at 22–23 °C and 50–60% relative humidity, on a 12-h light/dark cycle and with 70 air changes per hour and free access to food and sterile water. They were fed RM1 expanded pellets (Special Diets Services, Essex, UK), and the cages were enriched with housing, nesting material and gnaw sticks. All institutional and national guidelines for the care and use of laboratory animals were followed. Experiments were performed in Norway.
During all experiments, the animals were anaesthetized by inhalation of 2–3% isoflurane (Baxter, Deerfield, IL, USA). Anaesthesia was maintained with isoflurane in 0.4 L/min O2 and 0.6 L/min N2O.
To perform the pharmacokinetics and biodistribution study, the animals were separated into 2 groups according to dose: • Low dose PEBCA-Cbz, 0.5 mg/kg Cbz (4.4 mg/kg NPs) • High dose PEBCA-Cbz, 3.5 mg/kg Cbz (30.5 mg/kg NPs)
Details about the treatment groups are available in Table 1. Before injection, the particles were diluted in 0.9% saline to a concentration that corresponded to an injection volume of 2 mL/kg. In addition to the treated animals, 6 sham-treated (injected with 0.9% saline 2 mL/kg) animals were used. The sham-treated animals were euthanized at 2, 4 and 14 days, two at each time point. Animals were injected intravenously once.
Blood samples on time points 1–30 min and 4 h (Table 2) were performed on conscious animals, and all other blood samples were collected during exsanguination. The leg of the animal was shaved to expose the saphenous vein. Petrolatum was applied to the shaved area and the saphenous vein was punctured using a 19G needle. Into tubes containing blood clotting activator, 300–500 µL blood was collected (Microvette 500 Serum, Sarstedt AG & Co. KG, Germany). The tubes were turned 3–4 times, left for 60 min in upright position at room temperature to allow clot formation before centrifugation at 10 000 rcf for 5 min. The serum was immediately transferred to new tubes and stored at − 80 °C until LC–MS/MS analysis.
Cbz was quantified by LC–MS/MS, using the same instrumentation and chromatographic column as described for IR-780-oleyl quantification above. […] The flow rate was constant at 0.5 mL/min and the injection volume was 1 µL. […] Similarly, Cbz-d6 and docetaxel-d5 internal standards were monitored at m/z 864.4 → 583.2 and 835.5 → 554.3, respectively.
7-Methyl-docetaxel was purchased from SynZeal Research (Moraiya, India, catalogue number SZ-D031010), 10-methyl-docetaxel from Eos Med Chem (Jinan, China, custom synthesis), docetaxel from Sigma (Fluka, product number 01885) and 7-epi-docetaxel from Santa Cruz Biotechnology (Dallas, USA, product number SC-210610).
The Cbz-d6 and docetaxel-d5 internal standards were purchased from Toronto Research Chemicals (Toronto, Canada, catalogue numbers C046502 and D494423, respectively). A mix of the two internal standards was added to all standards and samples to yield a final concentration of 50 ng/mL.

## CC(=O)O[C@@]12CO[C@@H]1C[C@@H](O)[C@@]1(C)C(=O)[C@H](O)C3=C(C)[C@@H](OC(=O)[C@H](O)[C@@H](NC(=O)OC(C)(C)C)c4ccccc4)C[C@@](O)([C@@H](OC(=O)c4ccccc4)[C@H]21)C3(C)C [7-epi-docetaxel]
rat
  detection of possible Cbz metabolite in samples: no 7-epi-docetaxel

## CO[C@H]1C[C@H]2OC[C@@]2(OC(C)=O)[C@H]2[C@H](OC(=O)c3ccccc3)[C@]3(O)C[C@H](OC(=O)[C@H](O)[C@@H](NC(=O)OC(C)(C)C)c4ccccc4)C(C)=C([C@@H](O)C(=O)[C@]12C)C3(C)C [7-methyl-docetaxel]
rat
  detection of possible Cbz metabolite in samples: No 7-methyl-docetaxel was observed in any sample

## CO[C@H]1C(=O)[C@@]2(C)[C@H]([C@H](OC(=O)c3ccccc3)[C@]3(O)C[C@H](OC(=O)[C@H](O)[C@@H](NC(=O)OC(C)(C)C)c4ccccc4)C(C)=C1C3(C)C)[C@]1(OC(C)=O)CO[C@@H]1C[C@@H]2O [10-m-Doc, 10-methyl-docetaxel]
Cbz metabolites after PEBCA, even at high dose administered, rat, negligible
  metabolite concentration in brain: 0.2 ng/g
After PEBCA, rat serum, found only up to the 15-min sampling point
  metabolite concentration in serum relative to Cbz in the same sample: ≤ 0.5%

## CO[C@H]1C(=O)[C@]2(C)[C@@H](OC)C[C@H]3OC[C@@]3(OC(C)=O)[C@H]2[C@H](OC(=O)c2ccccc2)[C@]2(O)C[C@H](OC(=O)[C@H](O)[C@@H](NC(=O)OC(C)(C)C)c3ccccc3)C(C)=C1C2(C)C [Cbz, cabazitaxel]
Cbz after PEBCA, in most cases, rat
  sampling point at which the organ:blood ratio reaches its peak: 24 h
Cbz after PEBCA, majority of organs and time points, rat
  dose response (concentration ratio normalized to injected dose): > 1
Cbz after PEBCA, serum, rat
  dose response (concentration ratio normalized to injected dose): < 1
Cbz measured after PEBCA high dose, 3.5 mg/kg Cbz (30.5 mg/kg NPs) i.v., rat, n = 4
  Lung Cmax: 7593 ng/g
All organs, rat (abstract)
  measured concentration ratio all organs vs. blood, fold higher for cabazitaxel as compared to IR780-oleyl: more than 50 fold
All tissues except liver, rat
  peak concentration ratio organ:blood, fold higher for Cbz than for IR780-oleyl: at least 100 fold
liver, rat
  peak concentration ratio organ:blood, fold higher for Cbz than for IR780-oleyl: about 50 fold
Within the first 4 h after PEBCA injection, rat serum
  decrease in serum concentration of Cbz: ~100 fold
